Measurements: patent publication US11807835B2, “Detergent compositions containing a stabilized enzyme by phosphonates” (ECOLAB USA INC., priority 2016, dated 2023)

Test system: protease
Experiment: Protease activity retention in detergent use solution (4000 ppm, 5 GPG water; peptidyl substrate, glycine buffer pH 9.0)
Type: biochemical
Conditions: for Relative Protease Enzyme Activity: use solution at 120° F.
Procedure: The enzyme activities in the detergents with different phosphonate levels were tested at 4000 ppm in 5 grains per gallon (GPG) water at 120° F. with various time points collected up to 4 hours, after a use solution was generated from the detergent composition. During the tests, the samples at different time points were collected and immediately frozen in an acetone/dry ice bath and stored in −80° C. before the activity of the enzyme was evaluated. For the use of such an assay, t=0 min was the reference point for 100% enzyme activity.
Assays of enzyme activity in formulations (% retention) were conducted to simulate a presoak condition in a beaker using the chemistry, temperature, and pH conditions relevant to manual warewash or presoak applications. Enzyme activity is an indicator of the stability of the enzyme in the detergent, specifically in an aqueous use solution within a sump (which is under conditions of high pH, temperature and dilution).
The analysis by protease assay was conducted as follows. For the assays, a detergent composition was used to generate an aqueous use solution evaluated herein.
Enzyme activity under presoak or manual warewash conditions was traced quantitatively using a standard protease assay. Samples were prepared under bench top conditions, whereby the use solution from a detergent composition or detergent was obtained and maintained at a presoak or manual warewash temperature in a stirring water bath. After the time course for assessing enzyme stability is initiated, aliquots were taken at various time points and flash-frozen. A time=0 sample was prepared for each series by dissolving the detergent formulation at room temperature, mixing thoroughly, and flash freezing. Samples were thawed and diluted as necessary in an assay buffer usually for use in the protease assay. A glycine buffer at pH 9.0 is used here. The assay monitored the direct reaction of the protease on a small, commercially available peptidyl substrate, with liberation of the product providing correlation to the active enzyme content. The product was detected using a plate reader with an appreciable dynamic range (upper absorbance limit of the instrument >3.5). Enzyme activity levels were assessed relative to a calibration curve with average values for replicate tests used to map protease stability under presoak or manual warewash use conditions. Enzyme retention at each time point was calculated as the % enzyme activity relative to the time=0 sample.

[1] = base formula, phosphonate 0.3 wt-%, lower half of Table 4A, time 5
[2] = base formula, phosphonate 0.3 wt-%, lower half of Table 4A, time 20
[3] = base formula, phosphonate 0.3 wt-%, lower half of Table 4A, time 90
[4] = base formula, phosphonate 0.3 wt-%, lower half of Table 4A, time 120
[5] = base formula, phosphonate 0.3 wt-%, lower half of Table 4A, time 150, unit not given
[6] = base formula, phosphonate 0.3 wt-%, lower half of Table 4A, time 210
[7] = base formula, phosphonate 0.3 wt-%, lower half of Table 4A, time '0'
[8] = base formula, phosphonate 0.3 wt-%, lower half of Table 4A, time '40'
[9] = base formula, phosphonate 0.3 wt-%, lower half of Table 4A, time 'Blank'
[10] = base formula, phosphonate 0.3 wt-%, lower half of Table 4A, time row printed '10'
[11] = base formula, phosphonate 0.3 wt-%, lower half of Table 4A, time row printed '60'
[12] = base formula, phosphonate 0.3 wt-%, lower half of Table 4A, time row printed '180'
[13] = base formula, phosphonate 0.6 wt-%, time 0 min
[14] = base formula, phosphonate 0.6 wt-%, time 5 min
[15] = base formula, phosphonate 0.6 wt-%, time 10 min
[16] = base formula, phosphonate 0.6 wt-%, time 20 min
[17] = base formula, phosphonate 0.6 wt-%, time 40 min
[18] = base formula, phosphonate 0.6 wt-%, time 90 min
[19] = base formula, phosphonate 0.6 wt-%, time 120 min
[20] = base formula, phosphonate 0.6 wt-%, time 150 min
[21] = base formula, phosphonate 0.6 wt-%, time 180 min
[22] = base formula, phosphonate 0.6 wt-%, time 210 min
[23] = base formula, phosphonate 0.6 wt-%, time 240 min
[24] = base formula, phosphonate at 0.1% elemental phosphorus, time 0 min
[25] = base formula, phosphonate at 0.1% elemental phosphorus, time 5 min
[26] = base formula, phosphonate at 0.1% elemental phosphorus, time 10 min
[27] = base formula, phosphonate at 0.1% elemental phosphorus, time 20 min
[28] = base formula, phosphonate at 0.1% elemental phosphorus, time 40 min
[29] = base formula, phosphonate at 0.1% elemental phosphorus, time 60 min
[30] = base formula, phosphonate at 0.1% elemental phosphorus, time 90 min
[31] = base formula, phosphonate at 0.1% elemental phosphorus, time 120 min
[32] = base formula, phosphonate at 0.1% elemental phosphorus, time 150 min
[33] = base formula, phosphonate at 0.1% elemental phosphorus, time 180 min
[34] = base formula, phosphonate at 0.1% elemental phosphorus, time 210 min
[35] = base formula, phosphonate at 0.1% elemental phosphorus, time 240 min
[36] = base formula, phosphonate 0.6 wt-%, time 60 min

Diglycolamine phosphonate [DGAP]
Relative Protease Enzyme Activity (All Ash formula, phosphonate 0.3 wt-%, time 0 min): 100.00% | Relative Protease Enzyme Activity (All Ash formula, phosphonate 0.3 wt-%, time 5 min): 81.79% | Relative Protease Enzyme Activity (All Ash formula, phosphonate 0.3 wt-%, time 10 min): 75.39% | Relative Protease Enzyme Activity (All Ash formula, phosphonate 0.3 wt-%, time 20 min): 59.47% | Relative Protease Enzyme Activity (All Ash formula, phosphonate 0.3 wt-%, time 40 min): 39.98% | Relative Protease Enzyme Activity (All Ash formula, phosphonate 0.3 wt-%, time 60 min): 27.49% | Relative Protease Enzyme Activity (All Ash formula, phosphonate 0.3 wt-%, time 90 min): 18.95% | Relative Protease Enzyme Activity (All Ash formula, phosphonate 0.3 wt-%, time 120 min): 12.48% | Relative Protease Enzyme Activity (All Ash formula, phosphonate 0.3 wt-%, time 150 min): 10.56% | Relative Protease Enzyme Activity (All Ash formula, phosphonate 0.3 wt-%, time 180 min): 9.69% | Relative Protease Enzyme Activity (All Ash formula, phosphonate 0.3 wt-%, time 210 min): 7.02% | Relative Protease Enzyme Activity (All Ash formula, phosphonate 0.3 wt-%, time 240 min): 6.34% | protease stability in all ash formula (all ash formula, versus same composition with PBTC or HEDP without amine(s), FIG. 2D): more stable | Relative Protease Enzyme Activity [1]: 98.30% | Relative Protease Enzyme Activity [2]: 91.75% | Relative Protease Enzyme Activity [3]: 84.87% | Relative Protease Enzyme Activity [4]: 82.96% | Relative Protease Enzyme Activity [5]: 82.44% | Relative Protease Enzyme Activity [6]: 76.14% | Relative Protease Enzyme Activity [7]: 100.00% | Relative Protease Enzyme Activity [8]: 89.16% | Relative Protease Enzyme Activity [9]: 100.00% | Relative Protease Enzyme Activity [10]: 92.44% | Relative Protease Enzyme Activity [11]: 79.16% | Relative Protease Enzyme Activity [12]: 75.52% | Relative Protease Enzyme Activity [13]: 100.00% | Relative Protease Enzyme Activity [14]: 105.28% | Relative Protease Enzyme Activity [15]: 100.03% | Relative Protease Enzyme Activity [16]: 101.24% | Relative Protease Enzyme Activity [17]: 100.88% | Relative Protease Enzyme Activity [18]: 98.76% | Relative Protease Enzyme Activity [19]: 93.04% | Relative Protease Enzyme Activity [20]: 88.27% | Relative Protease Enzyme Activity [21]: 86.23% | Relative Protease Enzyme Activity [22]: 88.24% | Relative Protease Enzyme Activity [23]: 89.57% | Relative Protease Enzyme Activity [24]: 100.00% | Relative Protease Enzyme Activity [25]: 98.29% | Relative Protease Enzyme Activity [26]: 103.47% | Relative Protease Enzyme Activity [27]: 101.47% | Relative Protease Enzyme Activity [28]: 88.60% | Relative Protease Enzyme Activity [29]: 86.17% | Relative Protease Enzyme Activity [30]: 85.84% | Relative Protease Enzyme Activity [31]: 83.06% | Relative Protease Enzyme Activity [32]: 81.53% | Relative Protease Enzyme Activity [33]: 76.41% | Relative Protease Enzyme Activity [34]: 74.23% | Relative Protease Enzyme Activity [35]: 72.01%

NCP(=O)(O)O [AMPA, Aminomethyl phosphonic acid]
protease stability (base formula, compared with ATMP, DGAP, PAPEMP, MEAP): improves protease stability, but to a lesser extent | Relative Protease Enzyme Activity [1]: 86.30% | Relative Protease Enzyme Activity [2]: 63.30% | Relative Protease Enzyme Activity [3]: 37.90% | Relative Protease Enzyme Activity [4]: 31.17% | Relative Protease Enzyme Activity [5]: 28.70% | Relative Protease Enzyme Activity [6]: 22.72% | Relative Protease Enzyme Activity [7]: 100.00% | Relative Protease Enzyme Activity [8]: 51.37% | Relative Protease Enzyme Activity [9]: 85.83% | Relative Protease Enzyme Activity [10]: 78.58% | Relative Protease Enzyme Activity [11]: 44.31% | Relative Protease Enzyme Activity [12]: 25.64% | Relative Protease Enzyme Activity [13]: 100.00% | Relative Protease Enzyme Activity [14]: 109.27% | Relative Protease Enzyme Activity [15]: 94.52% | Relative Protease Enzyme Activity [16]: 84.97% | Relative Protease Enzyme Activity [17]: 77.92% | Relative Protease Enzyme Activity [36]: 75.86% | Relative Protease Enzyme Activity [18]: 62.50% | Relative Protease Enzyme Activity [19]: 54.43% | Relative Protease Enzyme Activity [20]: 51.19% | Relative Protease Enzyme Activity [21]: 47.47% | Relative Protease Enzyme Activity [22]: 43.42% | Relative Protease Enzyme Activity [23]: 40.00% | Relative Protease Enzyme Activity [24]: 107.11% | Relative Protease Enzyme Activity [25]: 100.00% | Relative Protease Enzyme Activity [26]: 99.75% | Relative Protease Enzyme Activity [27]: 84.62% | Relative Protease Enzyme Activity [28]: 70.58% | Relative Protease Enzyme Activity [29]: 62.19% | Relative Protease Enzyme Activity [30]: 49.17% | Relative Protease Enzyme Activity [31]: 43.34% | Relative Protease Enzyme Activity [32]: 38.26% | Relative Protease Enzyme Activity [33]: 34.55% | Relative Protease Enzyme Activity [34]: 32.27% | Relative Protease Enzyme Activity [35]: 28.25%

Polyamino Polyether Methylene Phosphonic Acid [PAPEMP]
Relative Protease Enzyme Activity [1]: 107.31% | Relative Protease Enzyme Activity [2]: 105.51% | Relative Protease Enzyme Activity [3]: 96.21% | Relative Protease Enzyme Activity [4]: 99.48% | Relative Protease Enzyme Activity [5]: 93.74% | Relative Protease Enzyme Activity [6]: 92.79% | Relative Protease Enzyme Activity [7]: 100.00% | Relative Protease Enzyme Activity [8]: 100.17% | Relative Protease Enzyme Activity [9]: 100.00% | Relative Protease Enzyme Activity [10]: 109.98% | Relative Protease Enzyme Activity [11]: 89.50% | Relative Protease Enzyme Activity [12]: 86.60% | Relative Protease Enzyme Activity [13]: 100.00% | Relative Protease Enzyme Activity [14]: 98.49% | Relative Protease Enzyme Activity [15]: 96.69% | Relative Protease Enzyme Activity [16]: 93.71% | Relative Protease Enzyme Activity [17]: 92.60% | Relative Protease Enzyme Activity [36]: 92.60% | Relative Protease Enzyme Activity [18]: 86.28% | Relative Protease Enzyme Activity [19]: 88.30% | Relative Protease Enzyme Activity [20]: 89.66% | Relative Protease Enzyme Activity [21]: 86.90% | Relative Protease Enzyme Activity [22]: 87.49% | Relative Protease Enzyme Activity [23]: 86.53% | Relative Protease Enzyme Activity [24]: 100.00% | Relative Protease Enzyme Activity [25]: 95.74% | Relative Protease Enzyme Activity [26]: 95.47% | Relative Protease Enzyme Activity [27]: 92.78% | Relative Protease Enzyme Activity [28]: 86.55% | Relative Protease Enzyme Activity [29]: 87.49% | Relative Protease Enzyme Activity [30]: 86.61% | Relative Protease Enzyme Activity [31]: 86.34% | Relative Protease Enzyme Activity [32]: 84.01% | Relative Protease Enzyme Activity [33]: 71.92% | Relative Protease Enzyme Activity [34]: 80.74% | Relative Protease Enzyme Activity [35]: 79.08%
